Assay results reported in paper PMC4710522, “A Novel Triazolopyridine-Based Spleen Tyrosine Kinase Inhibitor That Arrests Joint Inflammation” (PLoS ONE, 2016).

Legend:
[1] = molecular target: T1, CK2-alpha2_h (Homo sapiens, UniProt P19784); assay: SelectScreen kinase assay; assay type: biochemical; conditions: KM ATP, read-out: % control
T1 construct: purchased Life Technologies (Invitrogen) SelectScreen, Z'-LYTE / Adapta

[2] = molecular target: T2, PhK-gamma1_h (Homo sapiens, UniProt Q16816); assay: SelectScreen kinase assay; assay type: biochemical; conditions: KM ATP, read-out: % control
T2 construct: purchased Life Technologies (Invitrogen) SelectScreen, Z'-LYTE / Adapta
T2 sequence (Q16816 whole entry): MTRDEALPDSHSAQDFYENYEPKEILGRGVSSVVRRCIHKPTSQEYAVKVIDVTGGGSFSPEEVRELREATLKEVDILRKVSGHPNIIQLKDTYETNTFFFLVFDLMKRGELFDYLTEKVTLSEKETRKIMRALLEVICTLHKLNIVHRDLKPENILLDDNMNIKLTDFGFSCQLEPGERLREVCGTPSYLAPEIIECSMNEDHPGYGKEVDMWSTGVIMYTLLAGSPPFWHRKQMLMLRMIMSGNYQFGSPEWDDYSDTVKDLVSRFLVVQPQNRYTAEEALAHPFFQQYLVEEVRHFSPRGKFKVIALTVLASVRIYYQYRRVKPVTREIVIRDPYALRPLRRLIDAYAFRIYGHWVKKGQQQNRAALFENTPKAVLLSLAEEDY

[3] = molecular target: T3, Aurora A (Homo sapiens, UniProt O14965); assay: Aurora A IMAP TR-FRET assay; assay type: biochemical; conditions: in-house, mean ± SD
T3 construct: purchased Millipore 14-511
T3 sequence (O14965 whole entry): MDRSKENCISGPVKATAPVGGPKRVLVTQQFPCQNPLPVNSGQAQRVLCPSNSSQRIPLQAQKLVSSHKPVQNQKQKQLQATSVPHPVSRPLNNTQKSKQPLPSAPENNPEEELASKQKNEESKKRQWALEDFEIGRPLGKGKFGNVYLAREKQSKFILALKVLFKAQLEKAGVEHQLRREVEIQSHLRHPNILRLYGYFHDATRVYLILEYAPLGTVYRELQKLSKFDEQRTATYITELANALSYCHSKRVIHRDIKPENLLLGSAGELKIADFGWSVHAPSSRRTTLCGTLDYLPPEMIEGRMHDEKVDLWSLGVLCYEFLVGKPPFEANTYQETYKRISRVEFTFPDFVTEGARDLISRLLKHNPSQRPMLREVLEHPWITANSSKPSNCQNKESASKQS

[4] = rat pharmacokinetics; assay type: in vivo; conditions: Sprague-Dawley, plasma
Protocol: Male and Female Sprague-dawley rats with jugular vein cannulation were obtained from Charles River Laboratories. All rats were maintained under standard conditions with access to food and water ad libitum. For intravenous (i.v.) dosing, CC-509 was dissolved in DMA/PEG400 (15/85, V/V). A dose of 2 mg/kg was administered to three male rats via jugular vein cannula with a dosing volume of 2 mL/kg followed by flushing 0.5 mL saline through the cannula. Blood were collected at 0.083, 0.25, 0.5, 1, 2, 4, 6, 8 and 24hr post dose. Plasma samples were separated by centrifugation of blood and stored at -20°C until analysis. For oral administration, four female rats (220–250g) were fasted for 12hr but allowed to access water prior to the dosing. CC-509 was formulated in 20% Captisol as a solution and was administered to the rats at 10 mg/kg by oral gavage with a dosing volume of 5mL/kg. Food was returned to the rats 2hr post dosing. Blood samples were collected at 0.5, 1, 2, 4, 6, 8 and 24hr post dose. Plasma samples were separated by centrifugation of blood and stored at -20°C until analysis. Plasma concentrations of CC-509 were quantified by a LC/MS/MS method. A total of 50 microliters (μL) of each plasma sample was extracted with three volumes of mixed solvent (methanol:acetonitrile (1:1). The extracted samples were filtered through a filtration plate (0.45μm, Varian, Inc.) and the filtrates were injected onto a LC-MS system. The LC-MS system consisted of a ThermoScientific (Waltham, MA) TSQ Quantum Ultra™ Mass Spectrometer coupled with a Thermo Accela™ ultra-high pressure liquid chromatogram (UPLC) system. Separation was achieved on a Thermo Hypersil Gold™ column (50 x 2.1 mm, 1.9 μm) by running a linear gradient of mobile phase at a flow rate of 0.5 mL/min. Mobile phase A and B consisted of 0.1% formic acid in water and 0.1% formic acid in methanol, respectively. Quantitation was performed using selected reaction monitoring (SRM) at the transition m/z 448 to m/z 364 for CC-509. PK parameters in plasma were estimated by WinNonLin software (Pharsight, Princeton, NJ) using non-compartmental analysis. For i.v. dosing, plasma clearance (CLp), volume distribution at steady-state (Vss) and mean residence time (MRT) were estimated. For oral administration, the maximum plasma concentration (Cmax), the time when the maximum plasma concentration is reached (Tmax) and area under the curve from 0 to infinity (AUC0-inf) were calculated.

[5] = system: proinflammatory analytes in paw tissue; assay: inflammatory cytokines measured in the paw, rat CIA; assay type: in vivo
Protocol: Following the last administration of CC-509, paw samples were collected and processed for cytokine and chemokine analysis (Aushon Biosciences, Billerica, MA). Briefly paws were snap-frozen and pulverized in liquid nitrogen followed by addition of cell signal lysis buffer in the presence of protease and phosphatase inhibitors (Sigma Chemicals, St. Louis, MO). Samples were homogenized on high speed for 30 seconds, incubated on ice for 20 minutes then sonicated at high intensity for 1 minute. Samples were spun at high speed and supernatants were collected for cytokine analysis.

T1 sequence (P19784 whole entry): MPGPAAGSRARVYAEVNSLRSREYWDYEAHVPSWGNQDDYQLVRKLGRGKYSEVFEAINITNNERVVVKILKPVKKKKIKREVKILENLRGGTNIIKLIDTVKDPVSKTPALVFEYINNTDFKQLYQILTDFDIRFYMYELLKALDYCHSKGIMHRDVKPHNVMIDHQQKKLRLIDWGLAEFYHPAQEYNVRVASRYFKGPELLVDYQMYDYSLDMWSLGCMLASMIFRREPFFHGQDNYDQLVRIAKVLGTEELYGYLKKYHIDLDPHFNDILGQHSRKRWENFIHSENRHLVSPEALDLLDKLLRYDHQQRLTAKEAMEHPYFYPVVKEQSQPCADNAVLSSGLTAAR

What does the source list for `c1cc(CC2CCOCC2)n2nc(Nc3ccc4c(NC5CCOCC5)n[nH]c4c3)nc2c1` [CC-509, [3-(2H-3,4,5,6-tetrahydropyran-4-ylamino)(1H-indazol-6-yl)][5-(2H-3,4,5,6-tetrahydropyran-4-ylmethyl)(2H-1,2,4-triazolo[1,5-a]pyridin-2-yl)]amine]?
remaining activity at 3 µM [1]: 97%; remaining activity at 3 µM [2]: 75%; IC50 [3]: 220 ± 50 nM; AUC(0-inf) ([4]; iv, i.v. 2 mg/kg, male rats): 4.02 ± 0.7 µM·h; clearance ([4]; iv, i.v. 2 mg/kg, male rats, read-out: clearance (CL)): 18.9 ± 3.5 mL/min/kg; MRT ([4]; iv, i.v. 2 mg/kg, male rats, read-out: mean residence time (MRT)): 2.3 ± 1.5 h; Vd ([4]; iv, i.v. 2 mg/kg, male rats, read-out: volume of distribution (Vss)): 2.8 ± 2.36 L/kg; AUC(0-inf) ([4]; oral 10 mg/kg, female rats): 12 ± 1 µM·h; Cmax ([4]; oral 10 mg/kg, female rats): 4.4 ± 0.2 µM; Tmax ([4]; oral 10 mg/kg, female rats, read-out: time of maximal plasma concentration (converted)): 30 min; other proinflammatory analytes in the paw (IL-1β, IL-6, CRP) ([5]; day 18): No other significant effects; MCP-1 in the paw ([5]; day 18, 15 mg/kg q.d. and b.i.d. groups, p<0.01): significantly reduced; RANTES in the paw ([5]; day 18, all CC-509 dose levels, p<0.001): significantly reduced; KC in the paw ([5]; day 18, only in the 15 mg/kg b.i.d. group, p<0.05): reduced; MIP-1α in the paw ([5]; day 18, CC-509 all dose levels p<0.01, indomethacin p<0.05): significantly reduced
